Assays:
[1] = Prevention of seizures induced by loud -high frequency sounds in the DBA/2 mouse after 20 mg/kg ip administration; assay type: functional; settings: route intraperitoneal
Glutamate NMDA receptor = assay: Displacement of [3H]MK-801 from rat brain membrane N-methyl-D-aspartate glutamate receptor
[2] = target: Sodium channel protein type 2 subunit alpha (Rattus norvegicus, UniProt P04775); assay: Sodium channel block, determined by % block of [14C]guanidinium flux in CHO line expressing rat type IIA sodium channels derived from rat brain
physchem = settings: octanol/15 mM HEPES/135 mM NaCl, pH 7.4
Description: Partition coefficient (logD7.4) (octanol/15 mM HEPES/135 mM NaCl at pH 7.4)

Mus musculus = assay: The in vivo inhibitory activity of compound was measured as effectiveness in preventing seizures induced by loud -high frequency sounds in the DBA/2 mouse after 25 mg/kg ip administration.; assay type: functional; settings: route intraperitoneal

Sequence of Sodium channel protein type 2 subunit alpha (P04775 whole entry): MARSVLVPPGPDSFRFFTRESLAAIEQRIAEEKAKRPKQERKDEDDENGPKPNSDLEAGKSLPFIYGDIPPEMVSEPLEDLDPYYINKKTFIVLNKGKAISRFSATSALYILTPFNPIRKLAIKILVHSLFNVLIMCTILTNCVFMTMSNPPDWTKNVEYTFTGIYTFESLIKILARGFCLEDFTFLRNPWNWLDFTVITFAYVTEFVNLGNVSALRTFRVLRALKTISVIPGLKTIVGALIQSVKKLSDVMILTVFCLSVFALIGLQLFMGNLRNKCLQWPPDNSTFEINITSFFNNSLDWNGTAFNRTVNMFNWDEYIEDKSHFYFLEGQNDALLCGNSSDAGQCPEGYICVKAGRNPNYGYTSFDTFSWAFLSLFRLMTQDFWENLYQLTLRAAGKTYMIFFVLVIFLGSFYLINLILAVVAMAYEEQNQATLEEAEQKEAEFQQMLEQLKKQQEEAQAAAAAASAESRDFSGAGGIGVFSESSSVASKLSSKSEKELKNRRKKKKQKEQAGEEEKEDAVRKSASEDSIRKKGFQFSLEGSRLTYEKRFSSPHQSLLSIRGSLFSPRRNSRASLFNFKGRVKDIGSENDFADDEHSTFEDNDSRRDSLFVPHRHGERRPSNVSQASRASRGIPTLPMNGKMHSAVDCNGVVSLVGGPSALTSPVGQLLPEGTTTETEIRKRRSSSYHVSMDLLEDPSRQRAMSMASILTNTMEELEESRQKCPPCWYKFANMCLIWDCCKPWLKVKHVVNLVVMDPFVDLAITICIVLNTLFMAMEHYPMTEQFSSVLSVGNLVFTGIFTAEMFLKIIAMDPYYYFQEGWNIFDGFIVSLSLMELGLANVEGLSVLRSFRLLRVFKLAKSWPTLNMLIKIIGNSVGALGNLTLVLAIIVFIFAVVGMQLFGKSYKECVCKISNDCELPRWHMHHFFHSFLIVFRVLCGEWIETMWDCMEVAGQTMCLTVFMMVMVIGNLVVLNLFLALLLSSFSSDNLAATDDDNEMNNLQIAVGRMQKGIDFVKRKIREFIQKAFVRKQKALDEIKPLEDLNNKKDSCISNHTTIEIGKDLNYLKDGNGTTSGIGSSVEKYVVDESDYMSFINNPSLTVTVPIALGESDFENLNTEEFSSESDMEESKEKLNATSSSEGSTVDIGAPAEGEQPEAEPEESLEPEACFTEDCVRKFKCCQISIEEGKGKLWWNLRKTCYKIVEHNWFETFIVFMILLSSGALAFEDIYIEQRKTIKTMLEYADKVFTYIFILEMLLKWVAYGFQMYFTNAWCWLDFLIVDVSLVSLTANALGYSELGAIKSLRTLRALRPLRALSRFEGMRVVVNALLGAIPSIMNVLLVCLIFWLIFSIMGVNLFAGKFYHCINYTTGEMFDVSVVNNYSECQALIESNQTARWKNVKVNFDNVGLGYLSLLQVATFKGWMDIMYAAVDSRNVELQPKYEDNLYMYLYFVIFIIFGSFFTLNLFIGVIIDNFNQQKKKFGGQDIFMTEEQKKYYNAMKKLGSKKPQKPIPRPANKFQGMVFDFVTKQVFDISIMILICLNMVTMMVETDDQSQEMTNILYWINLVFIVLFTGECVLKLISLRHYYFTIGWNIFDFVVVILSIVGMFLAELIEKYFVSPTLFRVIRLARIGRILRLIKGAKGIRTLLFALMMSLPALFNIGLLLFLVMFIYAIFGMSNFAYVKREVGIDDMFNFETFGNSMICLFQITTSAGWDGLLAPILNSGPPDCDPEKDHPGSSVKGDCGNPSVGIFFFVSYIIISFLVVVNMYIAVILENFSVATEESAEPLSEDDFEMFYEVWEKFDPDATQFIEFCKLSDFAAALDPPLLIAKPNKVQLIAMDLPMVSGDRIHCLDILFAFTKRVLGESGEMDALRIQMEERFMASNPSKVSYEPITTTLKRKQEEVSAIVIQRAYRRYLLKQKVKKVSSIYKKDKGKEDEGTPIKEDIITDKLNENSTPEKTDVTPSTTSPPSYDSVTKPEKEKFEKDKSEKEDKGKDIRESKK

IC50 (Glutamate NMDA receptor) [nM] | IC50 [2] [nM] | logD (physchem) | Structure (SMILES) | inhibition in vivo at 20 mg/kg [1] [%] | inhibition in vivo at 25 mg/kg (Mus musculus) [%]
 | 1780 | 1.72 | CCCCOc1ccc(NC(=N)Nc2ccc(CCCCO)cc2)cc1 | 11 | 
17900 | 460 | 2.72 | CC(C)c1ccc(NC(=N)Nc2ccc(C(C)C)cc2)cc1 | 85 | 
 | 8190 | 0.047 | NC(=Nc1ccc(CCCCO)cc1)Nc1ccc(CCCCO)cc1 | 0 | 
2190 | 110 | 3.46 | CC(C)(C)c1ccc(NC(=N)Nc2ccc(OCc3ccccc3)cc2)cc1 | 27 | 
3320 | 130 | 4.1 | CCCCc1ccc(N=C(N)Nc2ccc(CCCC)cc2)cc1 |  | 82
7790 | 830 | 6.07 | CCCCCCc1ccc(N=C(N)Nc2ccc(CCCCCC)cc2)cc1 | 79 | 
7910 | 1390 | 1.7 | CCc1ccc(NC(=N)Nc2ccc(CC)cc2)cc1 | 100 | 
10100 |  | 3.94 | CCC(C)c1ccc(NC(=N)Nc2ccc(C(C)CC)cc2)cc1 (stereo not given) | 69 | 
> 7700 | 1540 | 3.65 | CC(C)(C)c1ccc(NC(=N)Nc2ccc(C(C)(C)C)cc2)cc1 | 60 | 

The remaining lines, values behind:

Structure (SMILES) | IC50 (Glutamate NMDA receptor) [nM] | IC50 [2] [nM] | logD (physchem) | inhibition in vivo at 20 mg/kg [1] [%] | inhibition in vivo at 25 mg/kg (Mus musculus) [%]
Nc1nc2ccc(OC(F)(F)F)cc2s1 [RILUZOLE] |  |  |  | 92 | 
CCCCOc1ccc(N=C(N)Nc2ccc(OCCCC)cc2)cc1 | 3480 | 190 | 3.52 | 52 | 
COc1ccc(/N=C(\N)Nc2ccc3c4c(cccc24)CC3)c2ccccc12 | 2490 |  | 2.7 | 50 | 
NC(=Nc1ccc(Sc2ccccc2)cc1)Nc1ccc(Sc2ccccc2)cc1 |  | 840 | 4.18 |  | 
Cc1ccc(N=C(N)Nc2ccc(C)cc2)cc1 | 10200 | 9210 | 0.7 | 43 | 
NC(=Nc1ccc(Oc2ccccc2)cc1)Nc1ccc(Oc2ccccc2)cc1 |  | 430 | 3.55 | 21 | 
CN1CCN(c2ncc(-c3cc(Cl)cc(Cl)c3Cl)c(N)n2)CC1 [SIPATRIGINE] |  |  | 3.39 | 66 | 
CCCCc1ccc(NC(N)=Nc2ccc(OCc3ccccc3)cc2)cc1 | 4010 | 140 |  | 40 | 
CCC(C)c1ccc(NC(N)=Nc2ccc3c4c(cccc24)CC3)cc1 (stereo not given) |  | 680 | 3.31 | 33 | 
NC(=Nc1ccc(-c2ccccc2)cc1)Nc1ccc(-c2ccccc2)cc1 |  | 850 | 3.13 |  | 

From ChEMBL document CHEMBL1131068, “Synthesis and pharmacological evaluation of N,N'-diarylguanidines as potent sodium channel blockers and anticonvulsant agents” (J Med Chem, 1998)
